Earlier results as cited in publication PMC8356818 (Chemical Science, 2021).
Values belong to the compound of their own block, whether it stands above or below them.

Tests used:
[1] = H4qp2 ligand, 25 °C
[2] = direct stopped-flow measurements
[3] = not given; remark: listed apart in the source

pKL1 ([1]; KL1 = [(H5qp2)^+][H^+]/[(H6qp2)^2+]): 4.47 (±0.08)
pKL2 ([1]; KL2 = [(H4qp2)][H^+]/[(H5qp2)^+]): 7.18 (±0.03)
Compound: Oc1ccc(O)c(CN(CCN(Cc2ccccn2)Cc2cc(O)ccc2O)Cc2ccccn2)c1 [Complex H4qp2, N,N′-bis(2,5-dihydroxybenzyl)-N,N′-bis(2-pyridinylmethyl)-1,2-ethanediamine]

pMn (stability in water): 4.7
Compound: C[C@@H]1N[C@@H]2CCCC[C@H]2NCCN[C@@H]2CCCC[C@H]2N[C@@H](C)c2cccc1n2.[Cl-].[Cl-].[Mn+2] [Complex M40401]
catalytic rate [2]: approximately 1.5 × 10^9 M^−1 s^−1

Mn estimated to be lost (release of free manganese) (neutral pH): approximately 30%
Compound: Mn^IIBr8TM-4-PyP^4+
estimated log kcat if the catalyst were fully intact [3]: exceed 8.67
log kcat ([3]; determined by the cytochrome c assay): 8.34
